Patent US9295631B2, “Skin lightening composition” (Conopco, Inc., priority 2012, dated 2016)

Test system: Primary human melanocytes
Assay: Melanin content in-vitro assay after siRNA transfection
Type: cell-based
Set-up: dose or concentration left out as unconfirmed
Settings: 72 hours; average of 3 readings
Description: Ten siRNA double strands of which one strand has the oligonucleotide as given below were synthetically prepared and used to estimate the potential as skin lightening agent using the melanin content in-vitro assay. It is clear to a person skilled in this area that specifying a single strand is sufficient to fully define the double stranded siRNA. The in-vitro assay was carried out as below: Primary human melanocytes were cultured for 24 hrs. Cells were transfected with Mirus Trans IT-TKO transfection reagent and duplex oligomers in culture media. […] After 1 hour at 60° C., absorbance was measured at 400 nm. Melanin content is expressed as % melanin content over scramble treated cells. The experiments were carried out and the data on melanin content as a percentage of the control sample is summarized as an average of 3 readings in table 1. Kojic acid is known to complete action within 72 hours.

O=c1cc(CO)occ1O [Kojic acid]
% control melanin: 76%
